Results: patent US10206394B2, “Herbicidal compounds” (Syngenta Participations AG, priority 2014, dated 2019)
Where two headings read alike, the source gives them in different places.

What was measured:
Test in all cases: Glasshouse assay for herbicidal activity (pre- and post-emergence), percentage phytotoxicity
Type in all cases: in vivo
[1] = tested on: Alopecurus myosuroides (ALOMY); details: Alopecurus myosuroides
Summary of the method: (§1)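 Herbicide was applied to potted plants sown in standard soil, one day after sowing for PRE and after about 12 days for POST. Visual percentage damage ratings followed at 15 DAA (POST) and 20 DAA (PRE).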

Avena fatua (AVEFA) = details: Avena fatua
Summary of the method: as §1

[2] = tested on: Echinochloa crus-galli (ECHCG); details: Echinochloa crus-galli
Summary of the method: as §1

Lolium perenne (LOLPE) = details: Lolium perenne
Summary of the method: as §1

[3] = post-emergence, 360 h, POST-emergence, rate 250 g/ha, visual score 15 DAA (100%=total damage, 0%=no damage), read-out: Post-emergence herbicidal activity (percentage phytotoxicity) ALOMY POST
[4] = pre-emergence, 480 h, PRE-emergence, rate 250 g/ha, visual score 20 DAA (100%=total damage, 0%=no damage), read-out: Pre-emergence herbicidal activity (percentage phytotoxicity) ALOMY PRE
[5] = post-emergence, 360 h, POST-emergence, rate 250 g/ha, visual score 15 DAA (100%=total damage, 0%=no damage), read-out: Post-emergence herbicidal activity (percentage phytotoxicity) AVEFA POST
[6] = pre-emergence, 480 h, PRE-emergence, rate 250 g/ha, visual score 20 DAA (100%=total damage, 0%=no damage), read-out: Pre-emergence herbicidal activity (percentage phytotoxicity) AVEFA PRE
[7] = post-emergence, 360 h, POST-emergence, rate 250 g/ha, visual score 15 DAA (100%=total damage, 0%=no damage), read-out: Post-emergence herbicidal activity (percentage phytotoxicity) ECHCG POST
[8] = pre-emergence, 480 h, PRE-emergence, rate 250 g/ha, visual score 20 DAA (100%=total damage, 0%=no damage), read-out: Pre-emergence herbicidal activity (percentage phytotoxicity) ECHCG PRE
[9] = post-emergence, 360 h, POST-emergence, rate 250 g/ha, visual score 15 DAA (100%=total damage, 0%=no damage), read-out: Post-emergence herbicidal activity (percentage phytotoxicity) LOLPE POST
[10] = pre-emergence, 480 h, PRE-emergence, rate 250 g/ha, visual score 20 DAA (100%=total damage, 0%=no damage), read-out: Pre-emergence herbicidal activity (percentage phytotoxicity) LOLPE PRE
[11] = post-emergence, 360 h, 250 g/ha, post-emergence, 15 DAA, visual assessment (100%=total damage, 0%=no damage), read-out: Post-emergence herbicidal activity (percentage phytotoxicity) ALOMY POST
[12] = pre-emergence, 480 h, 250 g/ha, pre-emergence, 20 DAA, visual assessment (100%=total damage, 0%=no damage), read-out: Pre-emergence herbicidal activity (percentage phytotoxicity) ALOMY PRE
[13] = post-emergence, 360 h, 250 g/ha, post-emergence, 15 DAA, visual assessment (100%=total damage, 0%=no damage), read-out: Post-emergence herbicidal activity (percentage phytotoxicity) AVEFA POST
[14] = pre-emergence, 480 h, 250 g/ha, pre-emergence, 20 DAA, visual assessment (100%=total damage, 0%=no damage), read-out: Pre-emergence herbicidal activity (percentage phytotoxicity) AVEFA PRE
[15] = post-emergence, 360 h, 250 g/ha, post-emergence, 15 DAA, visual assessment (100%=total damage, 0%=no damage), read-out: Post-emergence herbicidal activity (percentage phytotoxicity) ECHCG POST
[16] = pre-emergence, 480 h, 250 g/ha, pre-emergence, 20 DAA, visual assessment (100%=total damage, 0%=no damage), read-out: Pre-emergence herbicidal activity (percentage phytotoxicity) ECHCG PRE
[17] = post-emergence, 360 h, 250 g/ha, post-emergence, 15 DAA, visual assessment (100%=total damage, 0%=no damage), read-out: Post-emergence herbicidal activity (percentage phytotoxicity) LOLPE POST
[18] = pre-emergence, 480 h, 250 g/ha, pre-emergence, 20 DAA, visual assessment (100%=total damage, 0%=no damage), read-out: Pre-emergence herbicidal activity (percentage phytotoxicity) LOLPE PRE

SMILES	pest or weed control at 250 g/ha [1, 3]	pest or weed control at 250 g/ha [1, 4]	pest or weed control at 250 g/ha (Avena fatua (AVEFA); [5])	pest or weed control at 250 g/ha (Avena fatua (AVEFA); [6])	pest or weed control at 250 g/ha [2, 7]	pest or weed control at 250 g/ha [2, 8]	pest or weed control at 250 g/ha (Lolium perenne (LOLPE); [9])	pest or weed control at 250 g/ha (Lolium perenne (LOLPE); [10])	pest or weed control at 250 g/ha [1, 11]	pest or weed control at 250 g/ha [1, 12]	pest or weed control at 250 g/ha (Avena fatua (AVEFA); [13])	pest or weed control at 250 g/ha (Avena fatua (AVEFA); [14])	pest or weed control at 250 g/ha [2, 15]	pest or weed control at 250 g/ha [2, 16]	pest or weed control at 250 g/ha (Lolium perenne (LOLPE); [17])	pest or weed control at 250 g/ha (Lolium perenne (LOLPE); [18])	further results
Cc1cc(-c2ncc(Cl)cc2F)cc(C)c1C1C(=O)CC(CC(=O)NCC2CC2(F)F)C1=O (stereo not drawn) [Compound B197]	100%	100%	100%	90%	100%	100%	100%	90%	–	–	–	–	–	–	–	–	–
Cc1cc(-c2ncc(C#N)cc2Cl)cc(C)c1C1C(=O)CC(CC(=O)NC(C)(C)C)C1=O (stereo not drawn) [Compound B83]	–	–	–	–	–	–	–	–	70%	80%	80%	30%	90%	90%	80%	80%	–
C/C=C/c1cc(C)c(C2C(=O)CC(CC(=O)NCC3CC3)C2=O)c(C)c1 (stereo not drawn) [Compound B247]	100%	90%	100%	80%	100%	60%	100%	80%	–	–	–	–	–	–	–	–	–
CC#Cc1cc(C)c(C2C(=O)CC(CC(=O)N3CCOCC3)C2=O)c(C)c1 (stereo not drawn) [Compound B155]	–	–	–	–	–	–	–	–	100%	90%	100%	100%	100%	100%	100%	100%	–
C#CCN(C)C(=O)CC1CC(=O)C(c2c(C)cc(-c3ncc(F)cn3)cc2C)C1=O (stereo not drawn) [Compound B334]	–	–	–	–	–	–	–	–	–	–	–	–	–	–	–	–	pest or weed control at 250 g/ha ([1]; post-emergence, 360 h, Rate 250 g/ha, post-emergence, visual assessment 15 DAA, 100%=total damage, 0%=no damage, read-out: Post-emergence herbicidal activity (percentage phytotoxicity) ALOMY POST): 100%; pest or weed control at 250 g/ha ([1]; pre-emergence, 480 h, Rate 250 g/ha, pre-emergence, visual assessment 20 DAA, 100%=total damage, 0%=no damage, read-out: Pre-emergence herbicidal activity (percentage phytotoxicity) ALOMY PRE): 100%; pest or weed control at 250 g/ha (Avena fatua (AVEFA); post-emergence, 360 h, Rate 250 g/ha, post-emergence, visual assessment 15 DAA, 100%=total damage, 0%=no damage, read-out: Post-emergence herbicidal activity (percentage phytotoxicity) AVEFA POST): 100%; pest or weed control at 250 g/ha (Avena fatua (AVEFA); pre-emergence, 480 h, Rate 250 g/ha, pre-emergence, visual assessment 20 DAA, 100%=total damage, 0%=no damage, read-out: Pre-emergence herbicidal activity (percentage phytotoxicity) AVEFA PRE): 100%; pest or weed control at 250 g/ha ([2]; post-emergence, 360 h, Rate 250 g/ha, post-emergence, visual assessment 15 DAA, 100%=total damage, 0%=no damage, read-out: Post-emergence herbicidal activity (percentage phytotoxicity) ECHCG POST): 100%; pest or weed control at 250 g/ha ([2]; pre-emergence, 480 h, Rate 250 g/ha, pre-emergence, visual assessment 20 DAA, 100%=total damage, 0%=no damage, read-out: Pre-emergence herbicidal activity (percentage phytotoxicity) ECHCG PRE): 100%; pest or weed control at 250 g/ha (Lolium perenne (LOLPE); post-emergence, 360 h, Rate 250 g/ha, post-emergence, visual assessment 15 DAA, 100%=total damage, 0%=no damage, read-out: Post-emergence herbicidal activity (percentage phytotoxicity) LOLPE POST): 90%; pest or weed control at 250 g/ha (Lolium perenne (LOLPE); pre-emergence, 480 h, Rate 250 g/ha, pre-emergence, visual assessment 20 DAA, 100%=total damage, 0%=no damage, read-out: Pre-emergence herbicidal activity (percentage phytotoxicity) LOLPE PRE): 100%
Cc1cc(-c2ncc(F)cc2F)cc(C)c1C1C(=O)CC(CC(=O)NCc2cccc(Cl)c2)C1=O (stereo not drawn) [Compound B33]	–	–	–	–	–	–	–	–	90%	100%	100%	100%	100%	100%	90%	100%	–
